Data: patent US7524503B2, “Human cytomegalovirus (HCMV) cytotoxic T cell epitopes, polyepitopes compositions comprising same and diagnostic and prophylactic and therapeutic uses therefor” (priority 2001, dated 2009)
Where no end group is shown, it is not given here.

What was measured:
HLA A2 = target: T1, HLA A2 (Homo sapiens, UniProt P04439, D140Y/D185E/D98H/E176V/E277Q/G131W/G231S/I119V/I121R/I166T/I218V/L300P/L318F/N151K/N90K/P208A/P217A/Q86G/Q94H/R138H/R169H/T345S); assay type: cell-based; settings: HLA A2 on T2 cells; relative increase in HLA expression vs no peptide at 26° C.
T1 construct: endogenous in cells; host or cells: T2 cells

[1] = tested on: PBMC from healthy HCMV seropositive donors; test: IFN-γ ELISPOT assay; assay type: cell-based, human; settings: peptide 10 μg/ml
Protocol: ELISPOT assay was used to assess whether stimulation of PBMC from a large panel of seropositive donors with HCMV peptides could induce IFN-γ expression in T cells. Briefly, a 96-well nitrocellulose plate (Multiscreen, Millipore) was coated overnight at 4° C. with mouse monoclonal antibody anti-IFN-γ IgG1 (10 μg/ml; Mabtech Nacka, Sweden). The plate was then washed six times in Phosphate Buffered Saline (PBS) and blocked for 1 hour at 37° C. with PBS supplemented with 5% FCS. The blocking solution was removed and PBMC from healthy HCMV seropositive donors were added at a concentration of 2.5×10^5 cells per well in growth medium. These cells were incubated for 18 h at 37° C. in a 5% CO2 atmosphere in the presence of synthetic peptides from HCMV antigens (10 μg/ml). After incubation, the plate was washed three times with PBS supplemented with 0.05% Tween, followed by three washes with PBS alone. Biotinylated anti-IFN-γ (Mabtech, Nacka Sweden) detection antibody was added to each well at a final concentration of 1 μg/ml in PBS. The plates were incubated at room temperature in the dark for 4 h and then washed, as described above. Streptavidin-Alkaline phosphatase (Sigma) was added to each well at a final concentration of 1 μg/ml in PBS and incubated at room temperature in the dark for 2 h. After a final wash with PBS, the substrate, 5-bromo-4-chloro-3-indolyl phosphate and nitro blue tetrazolium, was added to each well and the plates incubated for 30 min at RT. Cells that produced IFN-γ in response to the presence of peptide were detected as purple spots on the nitrocellulose membrane of each well. The spots were counted automatically using a closed-circuit camera (CCD) and ImagePro image analysis software or automated ELISPOT reader (AID, Germany). The T cell precursor frequency for each peptide was based on the total number of PBMC in the well and the number of peptide-specific spots per well, over an average of 3 wells. The number of peptide-specific spots was also calculated by subtracting the negative control values, which consisted of PBMC without peptide (an average of 3 wells), from the test wells.
To determine whether memory CTL responses against the predictive HCMV potential epitopes could be detected in healthy seropositive virus carriers, we used the ELISPOT assay, which allows rapid identification of CTL epitopes without prolonged in vitro culture.
We tested epitopes that were restricted for HLA A1, A3, A24, A26, B7, B8, B27, B35 and B44 in ELISPOT assays, to determine whether memory T cell responses could be detected in healthy HLA-matched virus carriers. PBMC from a cohort of healthy virus carriers (Table 2) were stimulated with individual peptides and the cells that produced IFN-γ were detected. CTL epitopes that were restricted through either HLA A1, A3, A24, A26, B7, B8 or B27, were identified.
Thus, a total of 450 peptides were produced. ELISPOT assays were used to determine whether ex vivo memory T cell responses could be detected in a cohort of 14 healthy virus carriers (Table 2). PBMC were stimulated with individual peptides and the cells that produced IFN-γ were detected.

## ALDPYNEVV (human cytomegalovirus gH CTL epitope peptide)
HLA A2
  MSE (MHC stabilization efficiency): +++ (+++ = 200-300%)

## ALFFFDIDL [reference compound]
HLA A2
  MSE (MHC stabilization efficiency): ++ (++ = 100-199%)

## ALTVSEHVSYVVTNQYLIKG
[1]; donor four
  ELISPOT Responses (SFC/10^6 PBMC): MB(23) SFC/10^6 PBMC

## ASSPSTGSGTPRBTSPTHPL (ASSPSTGSGTPRXTSPTHPL; not fully specified)
[1]; donor eight
  ELISPOT Responses (SFC/10^6 PBMC): JW(95) SFC/10^6 PBMC

## ATSTGDVVY (human cytomegalovirus gB CTL epitope peptide)
[1]; donor sixteen
  ELISPOT Responses (SFC/10^6 PBMC): TC(239) SFC/10^6 PBMC

## CTPNVQTRRGRVKIDEVSRM
[1]; donor sixteen
  ELISPOT Responses (SFC/10^6 PBMC): TC(89) SFC/10^6 PBMC

## CVETMCNEY (human cytomegalovirus IE1 CTL epitope peptide) [reference compound]
[1]; donor sixteen
  ELISPOT Responses (SFC/10^6 PBMC): TC(4187) SFC/10^6 PBMC

## DEEEAIVAY (human cytomegalovirus IE1 CTL epitope peptide)
[1]; donor sixteen
  ELISPOT Responses (SFC/10^6 PBMC): TC(3903) SFC/10^6 PBMC

## DLDEGIMVV (human cytomegalovirus gB CTL epitope peptide)
HLA A2
  MSE (MHC stabilization efficiency): − (− = 0-50%)

## DLVPLTVSV (human cytomegalovirus pp71 CTL epitope peptide)
HLA A2
  MSE (MHC stabilization efficiency): + (+ = 51-99%)

## FETSGGLVVFWQGIKQKSLV (human cytomegalovirus gB CTL epitope peptide)
[1]; donor four
  ELISPOT Responses (SFC/10^6 PBMC): 23 SFC/10^6 PBMC
[1]; donor seven
  ELISPOT Responses (SFC/10^6 PBMC): 185 SFC/10^6 PBMC

## FLGARSPSL (human cytomegalovirus pp150 CTL epitope peptide)
HLA A2
  MSE (MHC stabilization efficiency): ++ (++ = 100-199%)

## FLLSHDAAL (human cytomegalovirus pp28 CTL epitope peptide)
HLA A2
  MSE (MHC stabilization efficiency): ++ (++ = 100-199%)

## GLDDLMSGL (human cytomegalovirus gB CTL epitope peptide)
HLA A2
  MSE (MHC stabilization efficiency): ++ (++ = 100-199%)

## GLDRNSGNY (human cytomegalovirus pp50 CTL epitope peptide)
[1]; donor sixteen
  ELISPOT Responses (SFC/10^6 PBMC): 507 SFC/10^6 PBMC
[1]; donor three
  ELISPOT Responses (SFC/10^6 PBMC): 345 SFC/10^6 PBMC

## GLLGASMDL (human cytomegalovirus pp28 CTL epitope peptide)
HLA A2
  MSE (MHC stabilization efficiency): − (− = 0-50%)

## HANTALVNAVNKLVYTGRLI (human cytomegalovirus pp150 CTL epitope peptide)
[1]; donor three
  ELISPOT Responses (SFC/10^6 PBMC): MW(122) SFC/10^6 PBMC

## HRQDALPGPCIASTPKKHRG
[1]; donor epsilon
  ELISPOT Responses (SFC/10^6 PBMC): SC(109) SFC/10^6 PBMC

## IGDQYVKVY
[1]; donor eleven
  ELISPOT Responses (SFC/10^6 PBMC): 565 SFC/10^6 PBMC
[1]; donor sixteen
  ELISPOT Responses (SFC/10^6 PBMC): 67 SFC/10^6 PBMC

## IILVAIAVV (human cytomegalovirus gB CTL epitope peptide)
HLA A2
  MSE (MHC stabilization efficiency): + (+ = 51-99%)

## IKEHMLKKY (human cytomegalovirus IE1 CTL epitope peptide)
[1]; donor sixteen
  ELISPOT Responses (SFC/10^6 PBMC): TC(4232) SFC/10^6 PBMC

## ILDEERDKV (human cytomegalovirus IE1 CTL epitope peptide)
HLA A2
  MSE (MHC stabilization efficiency): ++ (++ = 100-199%)

## ILFDGHDLL (human cytomegalovirus gH CTL epitope peptide)
HLA A2
  MSE (MHC stabilization efficiency): +++ (+++ = 200-300%)

## ILGADPLRV (human cytomegalovirus IE1 CTL epitope peptide)
HLA A2
  MSE (MHC stabilization efficiency): ++ (++ = 100-199%)

## KCSSGGGASVTSSHHGRGGF
[1]; donor sixteen
  ELISPOT Responses (SFC/10^6 PBMC): TC(54) SFC/10^6 PBMC

## KDVALRHVVCAHELVCSMEN
[1]; donor sixteen
  ELISPOT Responses (SFC/10^6 PBMC): TC(50) SFC/10^6 PBMC

## LDEGIMVVY (human cytomegalovirus gB CTL epitope peptide)
[1]; donor sixteen
  ELISPOT Responses (SFC/10^6 PBMC): TC(239) SFC/10^6 PBMC

## LLGALNLCL (human cytomegalovirus IE2 CTL epitope peptide)
HLA A2
  MSE (MHC stabilization efficiency): ++ (++ = 100-199%)

## LTVSGLAWTRQQNQWKEPDV
[1]; donor epsilon
  ELISPOT Responses (SFC/10^6 PBMC): SC(695) SFC/10^6 PBMC

## MLPLIKQEDIKPEPDFTIQY
[1]; donor seven
  ELISPOT Responses (SFC/10^6 PBMC): SB(132) SFC/10^6 PBMC

## NIEFFTKNSAFPKTTNGCSQ (human cytomegalovirus IE1 CTL epitope peptide)
[1]; donor fifteen
  ELISPOT Responses (SFC/10^6 PBMC): CP(1767) SFC/10^6 PBMC

## NTDFRVLEL (human cytomegalovirus gB CTL epitope peptide)
[1]; donor sixteen
  ELISPOT Responses (SFC/10^6 PBMC): TC(1631) SFC/10^6 PBMC

## PLGRPDEDSSSSSSSSCSSA
[1]; donor sixteen
  ELISPOT Responses (SFC/10^6 PBMC): TC(46) SFC/10^6 PBMC

## PRVTSPTHPLSQMNHPPLPD
[1]; donor eight
  ELISPOT Responses (SFC/10^6 PBMC): 52 SFC/10^6 PBMC
[1]; donor sixteen
  ELISPOT Responses (SFC/10^6 PBMC): 96 SFC/10^6 PBMC

## PVDLLGALNLCLPLMQKFPK (human cytomegalovirus IE2 CTL epitope peptide)
[1]; donor epsilon
  ELISPOT Responses (SFC/10^6 PBMC): 111 SFC/10^6 PBMC
[1]; donor sixteen
  ELISPOT Responses (SFC/10^6 PBMC): 169 SFC/10^6 PBMC

## RGDPFDKNY (human cytomegalovirus pp50 CTL epitope peptide)
[1]; donor nine
  ELISPOT Responses (SFC/10^6 PBMC): 720 SFC/10^6 PBMC
[1]; donor sixteen
  ELISPOT Responses (SFC/10^6 PBMC): 2739 SFC/10^6 PBMC

## RPSTPRAAV (human cytomegalovirus pp150 CTL epitope peptide)
[1]; donor four
  ELISPOT Responses (SFC/10^6 PBMC): MB(306) SFC/10^6 PBMC

## RRKMMYMCYRNIEFFTKNSA (human cytomegalovirus IE1 CTL epitope peptide)
[1]; donor fifteen
  ELISPOT Responses (SFC/10^6 PBMC): CP(632) SFC/10^6 PBMC

## RVKIDEVSRMFRNTNRSLEY
[1]; donor epsilon
  ELISPOT Responses (SFC/10^6 PBMC): 306 SFC/10^6 PBMC
[1]; donor sixteen
  ELISPOT Responses (SFC/10^6 PBMC): 194 SFC/10^6 PBMC

## STSQKPVLGKRVATPHASAR (human cytomegalovirus pp150 CTL epitope peptide)
[1]; donor three
  ELISPOT Responses (SFC/10^6 PBMC): MW(215) SFC/10^6 PBMC

## TENGSFVAGY (human cytomegalovirus UL18 CTL epitope peptide)
[1]; donor five
  ELISPOT Responses (SFC/10^6 PBMC): CS(283) SFC/10^6 PBMC

## THQLCPRSSDYRNMIIHAAT (human cytomegalovirus IE2 CTL epitope peptide)
[1]; donor epsilon
  ELISPOT Responses (SFC/10^6 PBMC): 173 SFC/10^6 PBMC
[1]; donor sixteen
  ELISPOT Responses (SFC/10^6 PBMC): 124 SFC/10^6 PBMC

## TSAGRKRKSASSATACTSGV
[1]; donor epsilon
  ELISPOT Responses (SFC/10^6 PBMC): SC(138) SFC/10^6 PBMC

## TVQGQNLKY
[1]; donor eleven
  ELISPOT Responses (SFC/10^6 PBMC): 385 SFC/10^6 PBMC
[1]; donor sixteen
  ELISPOT Responses (SFC/10^6 PBMC): 251 SFC/10^6 PBMC

## VKESPGRCY (human cytomegalovirus gB CTL epitope peptide)
[1]; donor sixteen
  ELISPOT Responses (SFC/10^6 PBMC): TC(51) SFC/10^6 PBMC

## WQPAAQPKRRRHRQDALPGP
[1]; donor epsilon
  ELISPOT Responses (SFC/10^6 PBMC): SC(615) SFC/10^6 PBMC

## YEQHKITSY (human cytomegalovirus pp50 CTL epitope peptide)
[1]; donor five
  ELISPOT Responses (SFC/10^6 PBMC): CS(67) SFC/10^6 PBMC

## YRHTWDRHDEGAAQGDDDVW
[1]; donor epsilon
  ELISPOT Responses (SFC/10^6 PBMC): SC(295) SFC/10^6 PBMC

## YRNMIIHAATPVDLLGALNL (human cytomegalovirus IE2 CTL epitope peptide)
[1]; donor eight
  ELISPOT Responses (SFC/10^6 PBMC): 132 SFC/10^6 PBMC
[1]; donor epsilon
  ELISPOT Responses (SFC/10^6 PBMC): 229 SFC/10^6 PBMC
[1]; donor sixteen
  ELISPOT Responses (SFC/10^6 PBMC): TC(137) SFC/10^6 PBMC
